Test results: US20240189279A1, “IMMUNOMODULATORY COMPOSITIONS AND METHODS OF USE THEREOF” (THE TEXAS A&M UNIVERSITY SYSTEM, priority 2022, published 2024)

Key:
[1] = tested on: colitis and fungal infection; details: administration of indole-3-aldehyde; cited from earlier work
NSAID enteropathy = details: indole administration; cited from earlier work
[2] = tested on: palmitate and LPS stimulated macrophages; assay: Cytokine production in palmitate and LPS stimulated macrophages; type: cell-based
AhR = target: T1, AhR (Homo sapiens, UniProt P35869); assay: Cell-based AhR reporter assays; details: extent comparable to other endogenous Trp-derived ligands (e.g., kynurenine)
T1 sequence (P35869 11-848): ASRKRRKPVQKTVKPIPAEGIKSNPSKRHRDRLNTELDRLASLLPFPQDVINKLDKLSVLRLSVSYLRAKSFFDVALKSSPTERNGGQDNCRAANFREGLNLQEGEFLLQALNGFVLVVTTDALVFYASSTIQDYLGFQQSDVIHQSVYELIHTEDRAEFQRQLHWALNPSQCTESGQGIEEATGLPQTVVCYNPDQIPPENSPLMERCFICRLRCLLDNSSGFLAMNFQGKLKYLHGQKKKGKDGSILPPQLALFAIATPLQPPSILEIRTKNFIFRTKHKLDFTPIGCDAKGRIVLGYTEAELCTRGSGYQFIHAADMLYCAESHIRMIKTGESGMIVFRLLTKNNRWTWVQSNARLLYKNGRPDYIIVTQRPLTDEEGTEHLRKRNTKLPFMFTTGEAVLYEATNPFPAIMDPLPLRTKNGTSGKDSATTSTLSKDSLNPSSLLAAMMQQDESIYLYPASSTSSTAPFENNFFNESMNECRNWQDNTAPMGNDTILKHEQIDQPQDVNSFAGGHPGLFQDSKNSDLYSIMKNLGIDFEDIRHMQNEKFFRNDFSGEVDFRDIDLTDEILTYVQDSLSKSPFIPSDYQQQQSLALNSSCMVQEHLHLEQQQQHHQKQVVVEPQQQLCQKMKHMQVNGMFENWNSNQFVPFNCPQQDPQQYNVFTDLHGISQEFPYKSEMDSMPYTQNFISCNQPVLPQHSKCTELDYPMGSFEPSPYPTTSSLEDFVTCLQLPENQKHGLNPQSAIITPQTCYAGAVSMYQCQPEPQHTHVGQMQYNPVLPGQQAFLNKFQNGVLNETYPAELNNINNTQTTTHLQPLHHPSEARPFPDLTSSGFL

[3] = tested on: endotoxin-treated murine bone marrow derived macrophages; assay: Cytokine expression in endotoxin-treated bone marrow derived macrophages; type: cell-based
[4] = tested on: TNFα and IL-1β expression in RAW 264.7 macrophages; assay: TNFα and IL-1β expression (qRT-PCR) in RAW 264.7 macrophages, palmitate and LPS two-hit model; type: cell-based, murine
[5] = RAW 264.7, 1 mM AICAR 4 h, 300 μM palmitate 18 h, 10 ng/ml LPS 6 h

O=Cc1c[nH]c2ccccc12 [indole-3-aldehyde]
IL-22 production from natural killer (NK) cells [1]: induced IL-22 production from natural killer (NK) cells | mucosal inflammation [1]: protected against mucosal inflammation

c1ccc2[nH]ccc2c1 [indole]
mucosal inflammation and injury (NSAID enteropathy): decreased mucosal inflammation and injury

NCCc1c[nH]c2ccccc12 [TA, tryptamine]
production of TNF-α, IL-1β, and MCP-1 [2]: dose-dependently attenuated the production of TNF-α, IL-1β, and MCP-1 | AhR activation (AhR): dose-dependently activate the AhR | expression of IL-1, TNF-α, and MCP-1 [3]: dose-dependently downregulate the expression of IL-1, TNF-α, and MCP-1

NC(=O)c1ncn([C@@H]2O[C@H](COP(=O)(O)O)[C@@H](O)[C@H]2O)c1N [AICAR, 5-aminoimidazole-4-carboxamide ribonucleotide]
attenuation of palmitate and LPS stimulated increase in IL-1β expression [4, 5]: 80% | attenuation of palmitate and LPS stimulated increase in TNFα expression [4, 5]: 30%

Cc1ccccc1N=Nc1ccc(NC(=O)c2ccnn2C)c(C)c1 [CH223191]
effect of AhR inhibitor on I3A's reduction of palmitate and LPS induced TNFα and IL-β expression ([4]; RAW 264.7, CH223191 5 μM added 10 min before 1 mM I3A): did not alter I3A's effect
